Data as given in patent US10077246B2, “Tricyclic prodrugs” (Glactone Pharma Development AB, priority 2014, dated 2018).

Tests used:
[1] = Chemical stability in phosphate buffered saline; format: physicochemical; settings: for half-life at 10 μM: 0.1 M phosphate buffered saline, 0.1 M PBS pH 7.4, 10 μM, room temperature; for chemical stability in 0.1 M PBS (in words): 0.1 M PBS (pH 7.4)
Method: The chemical stability of test compounds was determined in 96-well plate format. Compounds in DMSO stock solutions were diluted (n=2) in the required matrix (0.1 M phosphate buffered saline) to a concentration of 10 μM (2% DMSO final) and mixed at room temperature on an orbital shaker, with aliquots removed at 2 and 4 hours for testing. DMSO, containing an analytical internal standard, was added to the aliquots, vortex-mixed and analysed immediately by LC-MS/MS. Equivalent T=0 samples were also included, with sample preparation staggered to allow sequential injections of timed aliquots and the T=0 samples.
The amount of compound remaining (expressed as %) was determined from the MS response in each sample relative to that in the T=0 samples (normalized for internal standard).
Ln plots of the % remaining were used to determine the half-life of compound disappearance from the relationship:
t1/2 (min)=−0.693/λ, where λ is the slope of the Ln concentration vs time curve.

[2] = Pharmacokinetic (PK) study in mice, oral dosing, galiellalactone quantified in plasma; format: in vivo; settings: for AUC 0-t / AUC 0-∞ / plasma exposure of galiellalactone compared to oral administration of galiellalactone itself (in words): oral 10 mg/kg; for AUC 0-t / AUC 0-∞: galiellalactone (GL) in plasma; for AUC 0-t: 0 minutes to last quantifiable data point; for AUC 0-∞: extrapolated to infinity
Method: The usefulness of the compounds, as defined in the embodiments herein, as prodrugs to enhance the plasma exposure of tricyclic compounds that may be used treating, revoking, mitigating, alleviating and/or preventing different forms of cancer, were evaluated in an in vivo pharmacokinetic (PK) study in mice.
Doses of the test items were prepared at a drug concentration of 0.5 mg/mL in 5% DMSO in 50 mM citrate buffer (citric acid/sodium citrate), pH 4.0.
Oral doses were administered in a volume of 20 mL/kg (10 mg/kg) to groups of 24 mice and blood samples taken, under terminal barbiturate anaesthesia, at eight time-points out to 8 hours post-dose (n=3 mice per time-point).
Blood samples were transferred to tubes containing EDTA as anticoagulant and, as soon as practicable after collection, samples were centrifuged to yield plasma which was immediately frozen awaiting analysis. Following blood collection, brains were removed from all animals for possible future analysis and immediately frozen by immersion in liquid nitrogen. All samples were analyzed using LC-MS/MS.
Plasma proteins were precipitated and compounds extracted by the addition of three volumes of acetonitrile containing analytical internal standard (reserpine). Samples were centrifuged for 30 minutes at 3452 g in a Sorvall bench centrifuge and the supernatant fractions removed for MS analysis.
Quantification of the active compound e.g. galiellalactone, was by extrapolation from calibration lines prepared in control mouse plasma and analyzed concurrently with experimental samples and Quality Control (QC) samples prepared in control mouse plasma. If the compounds were instable in mouse plasma, calibration lines were constructed in water for qualitative MS comparison with any signal seen in plasma samples.
Pharmacokinetic parameters of the test items were determined using the mean data from the n=3 mice at each time-point. Non-compartmental analysis was performed using the software package PK Solutions 2.0 from Summit Research Services. AUC values were calculated by the trapezoidal method.
AUC 0-t: Area under the plasma drug concentration/time curve from 0 minutes to last quantifiable data point
AUC 0-∞: Area under the curve from 0 minutes extrapolated to infinity

[3] = system: DU145; assay: WST-1 cell proliferation assay, DU145; format: cell-based; settings: DU145 (pSTAT3 +), 72 hours/10 μM, percent of untreated control cells
Method: (§1) The functional activity of example 15 in comparison to galiellalactone was evaluated using WST-1 proliferation assay (J. Biol. Chem. 2014, 289:15969-15978) on DU145, PC-3, LNCaP or IL-6 stimulated LNCaP. The cells were cultured in 96-well plates (2000 cells/well in 200 μl of medium) and allowed to set for 24 h. The cells were treated with 10 μM of 4α-fluoro-galiellalactone or galiellalactone for 72 h. Samples were made in triplicate. 20 μl WST-1 solution (Roche Applied Science) was added per well and incubated at 37° C. for 4 h. The absorbance of each well was measured using a scanning multi-well spectrophotometer, ELISA reader at a wavelength of 450 nm and reference wavelength of 690 nm. The results presented in Table 3 below are presented as percent of untreated control cells.

[4] = system: PC-3; assay: WST-1 cell proliferation assay, PC-3; format: cell-based; settings: PC3 (pSTAT3 −), 72 hours/10 μM, percent of untreated control cells
Method: as §1

[5] = system: LNCaP; assay: WST-1 cell proliferation assay, LNCaP; format: cell-based; settings: LNCaP (pSTAT3 −), 72 hours/10 μM, percent of untreated control cells
Method: as §1

[6] = system: IL-6 stimulated LNCaP; assay: WST-1 cell proliferation assay, IL-6 stimulated LNCaP; format: cell-based; settings: LNCaP-IL6 (pSTAT3 +), 72 hours/10 μM, percent of untreated control cells
Method: as §1

[7] = system: IL-6/STAT3 signaling; settings: cited from earlier work
[8] = system: STAT3 expressing DU145 prostate cancer cells; settings: Prostate 68:269-280 (2008); cited from earlier work
[9] = system: STAT3; assay: WST-1 proliferation, pSTAT3 negative versus pSTAT3 positive cell lines; format: cell-based; settings: 10 μM; pSTAT3 negative PC3, LNCaP versus pSTAT3 positive cells
Method: as §1
On the other hand, the pSTAT3 positive cells are equally sensitive to 4α-fluoro-galiellalactone and galiellalactone.

half-life at 10 μM [1] [h] | AUC 0-t [2] [μg GL/mL•min] | AUC 0-∞ [2] [μg GL/mL•min] | SMILES | other results
0.367 |  |  | COC(=O)C(N)CS[C@H]1C2C(=O)O[C@@H]3CC[C@H](C[C@@H]1C)[C@]23O (stereo partly drawn) [reference compound] | 
 | 7.8 | 11 | COC(=O)[C@H](CS[C@H]1C2C(=O)O[C@@H]3CC[C@H](C[C@@H]1C)[C@]23O)NC(=O)c1ccccc1F (stereo partly drawn) [Example 13, 3β-(N-(2-fluorobenzoyl)-L-cysteinemethyl ester)-2aβ,3-dihydrogaliellalactone] | 
 | 150 | 155 | COC(=O)[C@H](CCS[C@H]1C2C(=O)O[C@@H]3CC[C@H](C[C@@H]1C)[C@]23O)NC(C)=O (stereo partly drawn) [Example 12, 3β-(N-acetyl-L-homocysteinemethyl ester)-2aβ,3-dihydrogaliellalactone] | 
 | 2.2 | 2.5 | C[C@H]1C[C@H]2CC[C@H]3OC(=O)C([C@@H]1N1CCCC1)[C@@]23O.Cl (stereo partly drawn) [drawing 42, 3β-(N-pyrrolidine)-2aβ,3-dihydrogaliellalactone, reference compound] | plasma exposure of galiellalactone compared to oral administration of galiellalactone itself (in words) [2]: do not increase the AUC; chemical stability in 0.1 M PBS (in words) [1]: very unstable
0.3 |  |  | C[C@H]1C[C@H]2CC[C@H]3OC(=O)C([C@@H]1N1CCCC1)[C@@]23O.Cl (stereo partly drawn) [drawing 45, reference compound] | 
 | 5 | 6 | C[C@@H]1C=C2C(=O)O[C@@H]3CC[C@H](C1)[C@]23O [Galiellalactone, (−)-Galiellalactone, reference compound] | AUC(0-inf) ([2]; mouse, oral administration 10 mg/kg, plasma galiellalactone): 95 ng·h/mL; % Remaining Proliferation [3]: 18%; % Remaining Proliferation [4]: 31%; % Remaining Proliferation [5]: 77%; % Remaining Proliferation [6]: 17%; inhibition of IL-6/STAT3 signaling [7]: submicromolar; proliferation of DU145 prostate cancer cells (in words) [8]: inhibits the proliferation
0.233 |  |  | C[C@H]1C[C@H]2CC[C@H]3OC(=O)C([C@@H]1SCC(N)C(=O)O)[C@@]23O (stereo partly drawn) [reference compound] | 
 | 97 | 101 | COC(=O)[C@H](CS[C@H]1C2C(=O)O[C@@H]3CC[C@H](C[C@@H]1C)[C@]23O)NC(=O)[C@@H](N)C(C)C (stereo partly drawn) [Example 14, 3β-(N-(L-valine)-L-cysteinemethyl ester)-2aβ,3-dihydrogaliellalactone] | chemical stability in 0.1 M PBS (in words) [1]: chemically stable

Continued, compound first:

SMILES | half-life at 10 μM [1] [h] | AUC 0-t [2] [μg GL/mL•min] | AUC 0-∞ [2] [μg GL/mL•min] | other results
C[C@H]1C[C@H]2CC[C@H]3OC(=O)C([C@@H]1SCC(NC(=O)CCC(N)C(=O)O)C(=O)NCC(=O)O)[C@@]23O (stereo partly drawn) [Example 9, 3β-(glutathione)-2aβ,3-dihydrogaliellalactone] | > 2.5 |  |  | 
COC(=O)[C@H](CS[C@H]1C2C(=O)O[C@@H]3CC[C@H](C[C@@H]1C)[C@]23O)NC(=O)C(C)C (stereo partly drawn) [Example 5] | > 2.3 | 15 | 21 | 
COC(=O)[C@H](CS[C@H]1C2C(=O)O[C@@H]3CC[C@H](C[C@@H]1C)[C@]23O)NC(=O)OC(C)(C)C (stereo partly drawn) [Example 6, 3β-(N-(tert-butylcarbonate)-L-cysteinemethyl ester)-2aβ,3-dihydrogaliellalactone] | > 2.5 | 11 | 17 | 
CC(=O)N[C@@H](CS[C@H]1C2C(=O)O[C@@H]3CC[C@H](C[C@@H]1C)[C@]23O)C(N)=O (stereo partly drawn) [Example 7, 3β-(N-acetyl L-cysteine amide)-2aβ,3-dihydrogaliellalactone] | > 2.5 |  |  | 
C[C@@]1(F)C=C2C(=O)O[C@@H]3CC[C@H](C1)[C@]23O [Example 15, 4α-fluoro-galiellalactone] |  |  |  | % Remaining Proliferation [3]: 16%; % Remaining Proliferation [4]: 68%; % Remaining Proliferation [5]: 105%; % Remaining Proliferation [6]: 20%; selectivity for STAT3 compared with galiellalactone (in words) [9]: significantly more selective
CCCCS[C@H]1C2C(=O)O[C@@H]3CC[C@H](C[C@@H]1C)[C@]23O (stereo partly drawn) [Example 1, 3β-(Butyllthio)-2aβ,3-dihydrogaliellalactone] |  | 85 | 102 | 
COC(=O)[C@H](CS[C@H]1C2C(=O)O[C@@H]3CC[C@H](C[C@@H]1C)[C@]23O)NC(C)=O (stereo partly drawn) [Example 3, 3β-(N-acetyl L-cysteinemethyl ester)-2aβ,3-dihydrogaliellalactone] | > 2.5 | 117 | 120 | plasma exposure of galiellalactone compared to oral administration of galiellalactone itself (in words) [2]: significantly improve; chemical stability in 0.1 M PBS (in words) [1]: chemically stable
C[C@H]1C[C@H]2CC[C@H]3OC(=O)C([C@@H]1Sc1ccccc1)[C@@]23O (stereo partly drawn) [Example 2, 3β-(Phenylthio)-2aβ,3-dihydrogaliellalactone] |  | 36 | 41 | 
CCOC(=O)[C@H](CS[C@H]1C2C(=O)O[C@@H]3CC[C@H](C[C@@H]1C)[C@]23O)NC(C)=O (stereo partly drawn) [Example 4, 3β-(N-acetyl L-cysteineethyl ester)-2aβ,3-dihydrogaliellalactone] |  | 20 | 22 | 
C[C@H]1C[C@H]2CC[C@H]3OC(=O)C([C@@H]1SCCS(=O)(=O)[O-])[C@@]23O.[Na+] (stereo partly drawn) [Example 8, 3β-(ethyl sulphonate)-2aβ,3-dihydrogaliellalactone sodium] | > 2.5 |  |  | 
